# The source made the active and inactive calls. No cut-off for these calls is given here.
# Tests used:
# MDA-MB-468 [1] = experiment: Induction of cell cycle arrest in human MDA-MB-468 cells assessed as increase in accumulation of cells at G2/M phase at 0.2 to 2 uM incubated for 48 hrs by RNase/PI staining based flow cytometric analysis; type: functional; settings: dose 0.2-2 µM
# MDA-MB-231 [2] = experiment: Induction of cell cycle arrest in human MDA-MB-231 cells assessed as downregulation of Cyclin E1 protein expression incubated for 48 hrs by Western blotting analysis; type: functional, cell-based
# MDA-MB-231 [3] = experiment: Inhibition of NF-kappaB signalling pathway in human MDA-MB-231 cells assessed as downregulation of IkappaBalpha phosphorylation at 0.5 to 2 uM incubated for 48 hrs by Western blotting analysis; type: cell-based; settings: dose 0.5-2 µM
# MDA-MB-468 [4] = experiment: Induction of apoptosis in human MDA-MB-468 cells at 5 uM incubated for 48 hrs by annexin-V-APC/PI staining based flow cytometric analysis (reference value: 5.38 +/- 1.63 %); type: functional
# MDA-MB-468 [5] = experiment: Induction of cell cycle arrest in human MDA-MB-468 cells assessed as decrease in accumulation of cells at G1 phase at 0.2 to 2 uM incubated for 48 hrs by RNase/PI staining based flow cytometric analysis; type: functional; settings: dose 0.2-2 µM
# MDA-MB-231 [6] = experiment: Antimigratory activity in human MDA-MB-231 cells assessed as downregulation of N-cadherin protein expression incubated for 48 hrs by Western blotting analysis; type: functional, cell-based
# MDA-MB-468 [7] = experiment: Induction of apoptosis in human MDA-MB-468 cells at 1 uM incubated for 48 hrs by annexin-V-APC/PI staining based flow cytometric analysis (reference value: 5.38 +/- 1.63 %); type: functional
# MDA-MB-231 [8] = experiment: Inhibition of NF-kappaB signalling pathway in human MDA-MB-231 cells assessed as inhibition of p65 nuclear translocation at 0.2 to 2 uM incubated for 48 hrs by Western blotting analysis; type: cell-based; settings: dose 0.2-2 µM
# MDA-MB-468 [9] = experiment: Induction of cell cycle arrest in human MDA-MB-468 cells assessed as downregulation of Cdc2 protein expression incubated for 48 hrs by Western blotting analysis; type: functional, cell-based
# 4T1 [10] = experiment: Antiproliferative activity against mouse 4T1 cells assessed as inhibition of cell growth incubated for 72 hrs by MTT assay; type: functional, cell-based; settings: 4T1, 72 h
# MDA-MB-231 [11] = experiment: Induction of apoptosis in human MDA-MB-231 cells at 0.5 uM incubated for 48 hrs by annexin-V-APC/PI staining based flow cytometric analysis (reference value: 1.81 +/- 0.47 %); type: functional
# MDA-MB-231 [12] = experiment: Induction of apoptosis in human MDA-MB-231 cells assessed as upregulation of Bax protein expression incubated for 48 hrs by Western blotting analysis; type: functional, cell-based
# MDA-MB-468 [13] = experiment: Antiproliferative activity against human MDA-MB-468 cells assessed as inhibition of cell growth incubated for 72 hrs by MTT assay; type: functional, cell-based; settings: MDA-MB-468, 72 h
# MDA-MB-231 [14] = experiment: Inhibition of NF-kappaB signalling pathway in human MDA-MB-231 cells assessed as downregulation of p65 phosphorylation at 0.5 to 2 uM incubated for 48 hrs by Western blotting analysis; type: cell-based; settings: dose 0.5-2 µM
# MDA-MB-468 [15] = experiment: Antimigratory activity in human MDA-MB-468 cells assessed as downregulation of N-cadherin protein expression incubated for 48 hrs by Western blotting analysis; type: functional, cell-based
# MDA-MB-231 [16] = experiment: Inhibition of NF-kappaB signalling pathway in human MDA-MB-231 cells assessed as upregulation of cytoplasmic p65 expression at 0.2 to 2 uM incubated for 48 hrs by Western blotting analysis; type: cell-based; settings: dose 0.2-2 µM
# 4T1 [17] = experiment: Antitumor activity against mouse 4T1 cells implanted in Balb/c mouse assessed as decrease in liver weight at 10 mg/kg,ip administrated every two days for 20 days; type: functional, organism-based; settings: time 20.0 day
# MDA-MB-468 [18] = experiment: Antimigratory activity in human MDA-MB-468 cells assessed as reduction in number of migrated cells incubated for 48 hrs by crystal violet staining based transwell assay; type: functional, cell-based
# MDA-MB-468 [19] = experiment: Induction of cell cycle arrest in human MDA-MB-468 cells assessed as downregulation of Cyclin B1 protein expression incubated for 48 hrs by Western blotting analysis; type: functional, cell-based
# MDA-MB-231 [20] = experiment: Induction of cell cycle arrest in human MDA-MB-231 cells assessed as increase in accumulation of cells at S phase at 0.2 to 2 uM incubated for 48 hrs by RNase/PI staining based flow cytometric analysis; type: functional; settings: dose 0.2-2 µM
# SUM-159-PT = experiment: Antiproliferative activity against human SUM159 cells assessed as inhibition of cell growth incubated for 72 hrs by MTT assay; type: functional, cell-based
# MCF7 = experiment: Antiproliferative activity against human MCF7 cells assessed as inhibition of cell growth incubated for 72 hrs by MTT assay; type: functional, cell-based; settings: MCF7, 72 h
# NIH3T3 = experiment: Cytotoxicity against mouse 3T3 cells at 1 uM incubated for 72 hrs by MTT assay; type: toxicity, cell-based; settings: nih3t3, 72 h
# MDA-MB-231 [21] = experiment: Induction of apoptosis in human MDA-MB-231 cells assessed as downregulation of BCL-2 protein expression incubated for 48 hrs by Western blotting analysis; type: functional, cell-based
# MDA-MB-231 [22] = experiment: Antimigratory activity in human MDA-MB-231 cells assessed as reduction in number of migrated cells incubated for 48 hrs by crystal violet staining based transwell assay; type: functional, cell-based
# MDA-MB-468 [23] = experiment: Induction of cell cycle arrest in human MDA-MB-468 cells assessed as downregulation of Cdc25c protein expression incubated for 48 hrs by Western blotting analysis; type: functional, cell-based
# MDA-MB-231 [24] = experiment: Induction of apoptosis in human MDA-MB-231 cells at 2 uM incubated for 48 hrs by annexin-V-APC/PI staining based flow cytometric analysis (reference value: 1.81 +/- 0.47 %); type: functional
# MDA-MB-231 [25] = experiment: Induction of apoptosis in human MDA-MB-231 cells at 1 uM incubated for 48 hrs by annexin-V-APC/PI staining based flow cytometric analysis (reference value: 1.81 +/- 0.47 %); type: functional
# MDA-MB-231 [26] = experiment: Antiproliferative activity against human MDA-MB-231 cells assessed as inhibition of cell growth incubated for 72 hrs by MTT assay; type: functional, cell-based; settings: MDA-MB-231, 72 h
# MDA-MB-231 [27] = experiment: Induction of apoptosis in human MDA-MB-231 cells assessed as downregulation of MCL-1 protein expression incubated for 48 hrs by Western blotting analysis; type: functional, cell-based
# MDA-MB-231 [28] = experiment: Antimigratory activity in human MDA-MB-231 cells assessed as downregulation of Vimentin protein expression incubated for 48 hrs by Western blotting analysis; type: functional, cell-based
# MDA-MB-231 [29] = experiment: Induction of cell cycle arrest in human MDA-MB-231 cells assessed as downregulation of Cdc25c protein expression incubated for 48 hrs by Western blotting analysis; type: functional, cell-based
# MDA-MB-231 [30] = experiment: Induction of apoptosis in human MDA-MB-231 cells assessed as downregulation of BCL-xl protein expression incubated for 48 hrs by Western blotting analysis; type: functional, cell-based
# 4T1 [31] = experiment: Antitumor activity against mouse 4T1 cells implanted in Balb/c mouse assessed as decrease in spleen weight at 10 mg/kg,ip administrated every two days for 20 days; type: functional, organism-based; settings: time 20.0 day
# MDA-MB-231 [32] = experiment: Induction of cell cycle arrest in human MDA-MB-231 cells assessed as increase in accumulation of cells at G2/M phase at 0.2 to 2 uM incubated for 48 hrs by RNase/PI staining based flow cytometric analysis; type: functional; settings: dose 0.2-2 µM
# MDA-MB-231 [33] = experiment: Induction of cell cycle arrest in human MDA-MB-231 cells assessed as downregulation of Cdc2 protein expression incubated for 48 hrs by Western blotting analysis; type: functional, cell-based
structure (smiles),measurement,setting,value
C=C1C(=O)O[C@H]2[C@H]1CC/C(COc1ccc(-c3cc(=S)ss3)cc1)=C\CC[C@@]1(C)O[C@@H]21,Activity,MDA-MB-468 [1],Active
same,Activity,MDA-MB-231 [2],Dose-Dependent Effect
same,inhibition,MDA-MB-231 [3],Active
same,Activity,MDA-MB-468 [4],43.96%
same,Activity,MDA-MB-468 [5],Active
same,Activity,MDA-MB-231 [6],Dose-Dependent Effect
same,Activity,MDA-MB-468 [7],6.4%
same,inhibition,MDA-MB-231 [8],Active
same,Activity,MDA-MB-468 [9],Dose-Dependent Effect
same,IC50,4T1 [10],1180 nM
same,Activity,MDA-MB-231 [11],2.3%
same,Activity,MDA-MB-231 [12],Dose-Dependent Effect
same,IC50,MDA-MB-468 [13],1520 nM
same,inhibition,MDA-MB-231 [14],Active
same,Activity,MDA-MB-468 [15],Dose-Dependent Effect
same,inhibition,MDA-MB-231 [16],Active
same,Activity,4T1 [17],Active
same,Activity,MDA-MB-468 [18],Dose-Dependent Effect
same,Activity,MDA-MB-468 [19],Dose-Dependent Effect
same,Activity,MDA-MB-231 [20],Active
same,IC50,SUM-159-PT,1510 nM
same,IC50,MCF7,3840 nM
same,Activity,NIH3T3,Toxic
same,Activity,MDA-MB-231 [21],Dose-Dependent Effect
same,Activity,MDA-MB-231 [22],Dose-Dependent Effect
same,Activity,MDA-MB-468 [23],Dose-Dependent Effect
same,Activity,MDA-MB-231 [24],48.24%
same,Activity,MDA-MB-231 [25],11.6%
same,IC50,MDA-MB-231 [26],890 nM
same,Activity,MDA-MB-231 [27],Dose-Dependent Effect
same,Activity,MDA-MB-231 [28],Dose-Dependent Effect
same,Activity,MDA-MB-231 [29],Dose-Dependent Effect
same,Activity,MDA-MB-231 [30],Dose-Dependent Effect
same,Activity,4T1 [31],Active
same,Activity,MDA-MB-231 [32],Active
same,Activity,MDA-MB-231 [33],Dose-Dependent Effect

# Reference: ChEMBL document CHEMBL5537150, “Synthesis of melampomagnolide B derivatives as potential anti-Triple Negative Breast Cancer agents” (Eur J Med Chem, 2024)
